US6413974B1, “6,9,-disubstituted 2-[trans-(4-aminocyclohexyl) amino] purines” (Aventis Pharmaceuticals Inc., priority 1998, dated 2002)
Several values for one entry are separate records, joined by “and”; a condition that tells them apart may be missing. Equal values may be shown once. Where a name gives a salt, the structure may show the parent alone. Read-outs that look alike come from different tables or passages of the source.

Key:
[1] = biological target: T1, cdk2/cyclin E (Homo sapiens, UniProt P24941); experiment: Cyclin-Dependent Kinase 2 Assay (cdk-2 inhibition); type: biochemical; conditions: GST-Rb substrate, 30 min at 30° C.
T1 construct: made in house; host or cells: insect cells (baculovirus co-infection)
Method: (§1) The transformed bacteria were grown overnight to saturation, then diluted in YT broth and incubated at 37° C. for 2 h. The protein was induced by incubation with 0.1 mM isopropylthioglycoside for 3 h. Following sedimentation by centrifugation, the cells were lysed by sonication in STE buffer ([…] NaCl, 10 mM Tris, pH 8.0, 1 mM EDTA) containing 10% sarkosyl. Particulate matter was removed by centrifugation and the lysate was incubated with glutathione-Sepharose at 4° C. The beads were washed with kinase buffer and then quantitation of Coomassie blue-stained proteins separated by SDS-PAGE was performed using a protein standard of known concentration.
(§2) Pre-wet Millipore Multiscreen 96-well filter plates (0.65 μm Durapore filters) with 200 μl kinase buffer (50 mM HEPES, pH 7.5, 10 mM MgCl2, 1 mM EGTA). GST-Rb (0.5 μg) bound to glutathione-Sepharose beads is added in 50 μl per well and the solution removed by application of vacuum. […] Add 0.1 μg cdk4/cyclin D1 (insect cell lysate) to initiate assay. Incubate 30 min at 37° C. Terminate reaction by filtration on Millipore Vacuum Manifold. Wash four times with TNEN (20 mM Tris, pH 8.0, 100 mM Na Cl, 1 mM EDTA, 0.5% nonidet P-40). After drying the plates at room temperature, the filter plates were placed in adapter plates (Packard) and 40 μl of Microscint-O® (Packard) was added to each well. Top Seal A film was used to cover the plates before counting in a Top Count Scintillation Counter.
GST-Rb as described above for cdk4/cyclin D1
Assay conditions for cdk2/cyclin E were identical to those for cdk4/cyclin D1 including the substrate. The concentration of recombinant cdk2/cyclin E in the assay was 0.1 μg per 100 μl assay. Incubation was for 30 min at 30° C.

[2] = biological target: T2, cdk4/cyclin D1 (Homo sapiens, UniProt P11802); experiment: Cyclin-dependent kinase 4 Assay; type: biochemical; conditions: cdk4/cyclin D1, GST-Rb substrate, 10 μM ATP, 30 min at 37° C.; read-out: CDK4 Inhibition IC50
T2 construct: made in house; host or cells: Sf9 insect cells (Bac-to-Bac baculovirus, pFastBac)
Method: The IC50 values for cdk-4 inhibition were by the following method:
as §1
The cDNA for human cyclin D1 was cloned by RT PCR using […] from MCF-7 cells. […] Bacmid DNA was used to transfect Sf9 insect cells to produce recombinant virus. Following plaque purification of the virus, the viral preparations were amplified until high titer stocks were acheived.
Lysates were prepared by lysis of Sf9 cells coinfected with cdk4 and cyclin D1 in 50 mM HEPES, pH 7.5, 10 mM MgCl2, 1 mM DTT, 0.1 mM phenylmethylsulfonyl fluoride, 5 μg/ml aprotinin, and 5 μg/ml leupeptin using a PARR bomb under 500 p.s.i nitrogen pressure for 5 min at 4° C. Insoluble material was sedimented at 10,000×g for 20 min at 4° C. Glycerol was added to the supernatant to 10% and stored at −80° C. in aliquots.
as §2

[3] = test system: DMS-114; experiment: In vitro tumor cell proliferation, DMS-114; type: cell-based, human; conditions: read-out: In vitro Tumor Cell Proliferation (IC50, μM) Lung DMS-114
Method: (§3) The proliferation of tumor cells was measured using a sulforhodamine B assay as described in Skehan, P., et al., J. Natl. Cancer Inst. […] Tumor cells were harvested with trypsin-EDTA, cells that excluded trypan blue were counted, added to 96-well plates and incubated overnight at 37° C. Drug was added to the wells following dilution in culture medium. Three days later, the medium was removed and replenished with medium containing fresh drug and incubated an additional 4 days. The cells were then fixed with 0.1 ml 10% trichloroacetic acid for 60 min at 4° C. The plates were rinsed five times with tap water, air-dried and stained for 30 min with 0.4% sulforhodamine B in 1% acetic acid and air-dried.
(§4) Alternatively, the CyQUANT cell proliferation assay was used to quantify tumor cell proliferation. Tumor cells were harvested with trypsin-EDTA, cells that excluded trypan blue were counted, added to 96-well plates and incubated overnight at 37° C. Drug was added to the wells following dilution in culture medium. Three days later the medium was removed and the plates frozen at −80° C. for at least 30 minutes.

[4] = test system: HT-29; experiment: In vitro tumor cell proliferation, HT-29; type: cell-based, human; conditions: read-out: In vitro Tumor Cell Proliferation (IC50, μM) Colon HT-29 (converted)
Method: as §3, §4
HT-29 is a human colon adenocarcinoma, moderately well-differentiated grade II (HTB 38);

[5] = test system: PC-3; experiment: In vitro tumor cell proliferation, PC-3; type: cell-based, human; conditions: read-out: In vitro Tumor Cell Proliferation (IC50, μM) Prostate PC-3
Method: as §3, §4

[6] = test system: DU 145; experiment: In vitro tumor cell proliferation, DU 145; type: cell-based, human; conditions: read-out: In vitro Tumor Cell Proliferation (IC50, μM) Prostate DUI45
Method: as §3, §4

[7] = test system: A549; experiment: In vitro tumor cell proliferation, A549; type: cell-based, human; conditions: read-out: In vitro Tumor Cell Proliferation (IC50, μM) Lung A549
Method: as §3, §4

[8] = test system: MDA-MB-231; experiment: In vitro tumor cell proliferation, MDA-MB-231; type: cell-based, human; conditions: read-out: In vitro Tumor Cell Proliferation (IC50, μM) Breast MDA-MB-231
Method: as §3, §4

[9] = test system: Colo-205; experiment: In vitro tumor cell proliferation, Colo-205; type: cell-based, human; conditions: read-out: In vitro Tumor Cell Proliferation (IC50, μM) Colon Colo-205
Method: as §3, §4

[10] = test system: MDA-MB-435; experiment: In vitro tumor cell proliferation, MDA-MB-435; type: cell-based, human; conditions: read-out: In vitro Tumor Cell Proliferation (IC50, μM) Breast MDA-MB-435
Method: as §3, §4

[11] = values without *, dihydrochloride
[12] = Homo sapiens, DMS-114, values marked * (mark not explained)
[13] = values marked * (mark not explained), trihydrochloride
[14] = Homo sapiens, HT-29, values marked * (mark not explained)
[15] = Homo sapiens, PC-3, values marked * (mark not explained)
[16] = Homo sapiens, DU-145, values marked * (mark not explained)
[17] = Homo sapiens, A549, values marked * (mark not explained)
[18] = Homo sapiens, MDA-MB-231, values marked * (mark not explained)
[19] = Homo sapiens, COLO 205, values marked * (mark not explained)
[20] = values marked * (mark not explained), dihydrochloride

T2 sequence (P11802 whole entry): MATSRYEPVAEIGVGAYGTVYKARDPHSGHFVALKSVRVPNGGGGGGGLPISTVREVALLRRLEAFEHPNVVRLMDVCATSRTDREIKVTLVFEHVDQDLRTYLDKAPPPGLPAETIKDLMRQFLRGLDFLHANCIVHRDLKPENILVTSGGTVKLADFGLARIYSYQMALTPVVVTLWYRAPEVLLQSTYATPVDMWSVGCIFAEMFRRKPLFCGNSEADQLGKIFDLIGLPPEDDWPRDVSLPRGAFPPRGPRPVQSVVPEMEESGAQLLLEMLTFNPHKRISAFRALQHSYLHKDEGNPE
T2 sequence (P24385 whole entry partner): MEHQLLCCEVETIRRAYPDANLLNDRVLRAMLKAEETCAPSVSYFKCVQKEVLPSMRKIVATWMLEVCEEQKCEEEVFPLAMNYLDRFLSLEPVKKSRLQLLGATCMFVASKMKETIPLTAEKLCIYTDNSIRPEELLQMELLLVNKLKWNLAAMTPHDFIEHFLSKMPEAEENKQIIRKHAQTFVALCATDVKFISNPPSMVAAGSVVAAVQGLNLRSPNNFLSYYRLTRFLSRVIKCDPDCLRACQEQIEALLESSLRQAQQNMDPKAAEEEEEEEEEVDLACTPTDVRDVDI

IC50 [1] | IC50 [2] | IC50 [3, 12] | IC50 [4, 14] | IC50 [5, 15] | IC50 [6, 16] | IC50 [7, 17] | IC50 [9, 19] | IC50 [4, 20] | IC50 [7, 20] | SMILES | also measured
5100 nM | > 100000 nM |  |  |  |  |  |  |  |  | N[C@H]1CC[C@H](Nc2nc(NCCc3ccc4c(c3)OCO4)c3ncn(C4CCCC4)c3n2)CC1 [Example 4, 2-[Trans-(4-aminocyclohexyl)amino]-6-[2-(3,4-methylenedioxyphenyl)ethylamino]-9-cyclopentylpurine dihydrochloride] | 
420 nM | 1000 nM and 6000 nM |  |  |  |  |  |  |  |  | N[C@H]1CC[C@H](Nc2nc(NCc3ccccc3F)c3ncn(C4CCCC4)c3n2)CC1 [Example 42, 2-[Trans-(4-aminocyclohexyl)amino]-6-[(2-fluorobenzyl)amino]-9-cyclopentylpurine dihydrochloride] | IC50 ([3]; Homo sapiens, DMS-114, values without *): 10 µM; IC50 [3, 11]: 5.1 µM; IC50 ([4]; Homo sapiens, HT-29, values without *): 15 µM; IC50 ([5]; Homo sapiens, PC-3, values without *): 8.8 µM; IC50 [5, 11]: 7.1 µM; IC50 ([6]; Homo sapiens, DU-145, values without *): 7.3 µM; IC50 ([7]; Homo sapiens, A549, values without *): 7.1 µM; IC50 ([8]; Homo sapiens, MDA-MB-231, values without *): 16 µM; IC50 [8, 11]: 17 µM
110 nM | 3200 nM and 4200 nM | 8.8 µM | 11 µM | 7.2 µM | 6.7 µM | 7.9 µM | 5.3 µM |  |  | N[C@H]1CC[C@H](Nc2nc(NCCN3CCOCC3)c3ncn(C4CCCC4)c3n2)CC1 [Example 13, 2-[Trans-(4-aminocyclohexyl)amino]-6-[2-(4-morpholinyl)ethylamino]-9-cyclopentylpurine trihydrochloride] | IC50 [3, 13]: 6.2 µM; IC50 [5, 13]: 6.4 µM; IC50 [6, 13]: 7.5 µM; IC50 [7, 13]: 6.9 µM; IC50 [8, 18]: 4.8 µM; IC50 [8, 13]: 9.4 µM; IC50 [9, 13]: 5.2 µM
2600 nM | > 100000 nM |  |  |  |  |  |  |  |  | C[C@H](Nc1nc(N[C@H]2CC[C@H](N)CC2)nc2c1ncn2C1CCCC1)c1ccccc1 [Example 6, (S)-2-[Trans-(4-aminocyclohexyl)amino]-6-[(α-methylbenzyl)amino]-9-cyclopentylpurine dihydrochloride] | 
780 nM | 2100 nM |  |  |  |  |  |  |  |  | CC(C)n1cnc2c(NCc3cccc(I)c3)nc(N[C@H]3CC[C@H](N)CC3)nc21 [Example 51, 2-[Trans-(4-aminocyclohexyl)amino]-6-[(3-iodobenzyl)amino]-9-(2-propyl)purine dihydrochloride] | 
19 nM | 1400 nM | 1.2 µM | 2.1 µM | 1.4 µM |  | 1.7 µM | 2.4 µM | 3.6 µM | 1.1 µM | N[C@H]1CC[C@H](Nc2nc(NCc3ccco3)c3ncn(C4CCCC4)c3n2)CC1 [Example 38, 2-[Trans-(4-aminocyclohexyl)amino]-6-(2-furanmethylamino)-9-cyclopentylpurine dihydrochloride] | IC50 [5, 20]: 1.7 µM; IC50 [9, 20]: 2.8 µM
100 nM | 1500 nM | 1.3 µM | 2.7 µM | 2.3 µM | 2.8 µM | 1.4 µM | 2.4 µM |  |  | CC(C)n1cnc2c(NCc3cccc(Cl)c3)nc(N[C@H]3CC[C@H](N)CC3)nc21 [Example 15, 2-[Trans-(4-aminocyclohexyl)amino]-6-[(3-chloro)benzylamino]-9-(2-propyl)purine dihydrochloride] | IC50 [8, 18]: 3 µM
14 nM and 26 nM and 6 nM | 180 nM | 0.7 µM | 1.5 µM | 0.9 µM | 0.8 µM | 1.2 µM | 2.1 µM | 2.1 µM | 1.8 µM | CCNc1nc(N[C@H]2CC[C@H](N)CC2)nc2c1ncn2C1CCCC1 [Example 33, 2-[Trans-(4-aminocyclohexyl)amino]-6-(ethylamino)-9-cyclopentylpurine dihydrochloride] | IC50 [3, 20]: 0.9 µM; IC50 [5, 20]: 1 µM
120 nM and 100 nM | 1300 nM and 1000 nM |  | 2.4 µM |  |  | 1.7 µM |  | 2.5 µM and 4.1 µM | 2.2 µM and 1.8 µM | N[C@H]1CC[C@H](Nc2nc(NCc3ccccc3Cl)c3ncn(C4CCCC4)c3n2)CC1 [Example 18, 2-[Trans-(4-aminocyclohexyl)amino]-6-[(2-chlorobenzyl)amino]-9-cyclopentylpurine dihydrochloride] | IC50 ([10]; Homo sapiens, MDA-MB-435, values marked * (mark not explained)): 8 µM; IC50 [10, 20]: 8.2 µM
